Source: patent US9637473B2, “Acrylamide derivatives as antimalarial agents” (priority 2013, dated 2017)
Counter-ions that a name gives are not always drawn.

tested on: P. Falciparum NF54; assay: Plasmodium falciparum in vitro assay ([3H]-hypoxanthine incorporation); type: cell-based; conditions: Plasmodium falciparum, Erythrocyte, P. Falciparum NF54, erythrocytic stages in human red blood cells, 50% human serum
Method in brief: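 Activity against the blood stages of Plasmodium falciparum growing in human red blood cells was measured by how much [3H]-hypoxanthine the parasites took up. Filters were dried, sealed in plastic foil containing 10 mL of scintillation fluid, and read on a Betaplate liquid scintillation counter. IC50 values came from sigmoidal inhibition curves fitted in Microsoft Excel.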

SMILES	IC50 [nM]
Cc1cc(Nc2ccc(CN(C(=O)/C=C/c3ccc(C(F)(F)F)cc3)C3CCN(CCC(F)(F)F)CC3)cc2)ccn1 [Example 39, (E)-N-[4-(2-Methyl-pyridin-4-ylamino)-benzyl]-3-(4-trifluoromethyl-phenyl)-N-[1-(3,3,3-trifluoro-propyl)-piperidin-4-yl]-acrylamide]	155
Cc1c(/C=C/C(=O)N(Cc2ccc(N(C)c3ccncc3)cc2)C2CCN(Cc3ccccc3)CC2)cnn1C [Example 164, (E)-N-(1-Benzyl-piperidin-4-yl)-3-(1,5-dimethyl-1H-pyrazol-4-yl)-N-[4-(methyl-pyridin-4-yl-amino)-benzyl]-acrylamide]	368
CN1CCC(N(C)c2ccc(CN(C(=O)/C=C/c3ccc(C(F)(F)F)cc3)C3CCN(C4CCCC4)CC3)cn2)CC1 [Example 106, (E)-N-(1-Cyclopentyl-piperidin-4-yl)-N-{6-[methyl-(1-methyl-piperidin-4-yl)-amino]-pyridin-3-ylmethyl}-3-(4-trifluoromethyl-phenyl)-acrylamide]	348
CN(c1ccncc1)c1ccc(CN(C(=O)/C=C/c2cccc(F)c2)C2CCN(Cc3ccccc3)CC2)cc1 [Example 156, (E)-N-(1-Benzyl-piperidin-4-yl)-3-(3-fluoro-phenyl)-N-[4-(methyl-pyridin-4-yl-amino)-benzyl]-acrylamide]	101
Cc1cc(Nc2ccc(CN(C(=O)/C=C/c3ccc(C(F)(F)F)cc3)C3CCN(Cc4ncn5ccccc45)CC3)cc2)ccn1 [Example 45, (E)-N-(1-Imidazo[1,5-a]pyridin-1-ylmethyl-piperidin-4-yl)-N-[4-(2-methyl-pyridin-4-ylamino)-benzyl]-3-(4-trifluoromethyl-phenyl)-acrylamide]	168
CN(c1ccncc1)c1ccc(CN(C(=O)/C=C/c2ccccc2Cl)C2CCN(Cc3ccccc3)CC2)cc1 [Example 154, (E)-N-(1-Benzyl-piperidin-4-yl)-3-(2-chloro-phenyl)-N-[4-(methyl-pyridin-4-yl-amino)-benzyl]-acrylamide]	145
Cn1ccc(-c2ccc(CN(C(=O)/C=C/c3ccc(C(F)(F)F)cc3)C3CCN(C4CCCC4)CC3)cc2)n1 [Example 202, (E)-N-(1-Cyclopentyl-piperidin-4-yl)-N-[4-(1-methyl-1H-pyrazol-3-yl)-benzyl]-3-(4-trifluoromethyl-phenyl)-acrylamide]	434
CC(C)N1CCC(N(Cc2cncc(Nc3ccncc3F)c2)C(=O)/C=C/c2ccc(C(F)(F)F)cc2)CC1 [Example 138, (E)-N-[5-(3-Fluoro-pyridin-4-ylamino)-pyridin-3-ylmethyl]-N-(1-isopropyl-piperidin-4-yl)-3-(4-trifluoromethyl-phenyl)-acrylamide formate]	344
CN1CCC(N(C)c2ccc(CN(C(=O)/C=C/c3ccc(C(F)(F)F)cc3)C3CCN(Cc4ccccc4)CC3)cc2)CC1 [Example 177, (E)-N-(1-Benzyl-piperidin-4-yl)-N-{4-[methyl-(1-methyl-piperidin-4-yl)-amino]-benzyl}-3-(4-trifluoromethyl-phenyl)-acrylamide]	238
O=C(/C=C/c1ccc(C(F)(F)F)cc1)N(Cc1ccnc(N2CCCC2)c1)C1CCN(C2CCCC2)CC1 [Example 206, (E)-N-(1-Cyclopentyl-piperidin-4-yl)-N-(2-pyrrolidin-1-yl-pyridin-4-ylmethyl)-3-(4-trifluoromethyl-phenyl)-acrylamide]	451

The next lines start with the values.

IC50 [nM]	SMILES
42	Cc1cc(Nc2ccc(CN(C(=O)/C=C/c3ccc(C(F)(F)F)cc3)C3CCN(C4CCCC4)CC3)cn2)ccn1 [Example 168, (E)-N-(1-Cyclopentyl-piperidin-4-yl)-N-[6-(2-methyl-pyridin-4-ylamino)-pyridin-3-ylmethyl]-3-(4-trifluoromethyl-phenyl)-acrylamide]
51	CN(c1ccncc1)c1ccc(CN(C(=O)/C=C/c2ccc(C(F)(F)F)cc2)C2CCN(Cc3cnn(-c4ccccc4)c3)CC2)cc1 [Example 18, (E)-N-[4-(Methyl-pyridin-4-yl-amino)-benzyl]-N-[1-(1-phenyl-1H-pyrazol-4-ylmethyl)-piperidin-4-yl]-3-(4-trifluoromethyl-phenyl)-acrylamide]
42	COCC(C)N1CCC(N(Cc2ccc(Nc3ccnc(C)c3)cc2)C(=O)/C=C/c2ccc(C(F)(F)F)cc2)CC1 (racemic) [Example 84, (±)-(E)-N-[1-(2-Methoxy-1-methyl-ethyl)-piperidin-4-yl]-N-[4-(2-methyl-pyridin-4-ylamino)-benzyl]-3-(4-trifluoromethyl-phenyl)-acrylamide]
43	Cc1cc(Nc2ccc(CN(C(=O)/C=C/c3ccc(C(F)(F)F)cc3)C3CCN(C4CCCC4)CC3)cc2)c2ccccc2n1 [Example 85, (E)-N-(1-Cyclopentyl-piperidin-4-yl)-N-[4-(2-methyl-quinolin-4-ylamino)-benzyl]-3-(4-trifluoromethyl-phenyl)-acrylamide]
58	Cc1cc(Nc2ccc(CN(CCN(C)C)C(=O)/C=C/c3ccc(C(F)(F)F)cc3)cc2)ccn1 [Example 176, (E)-N-(2-Dimethylamino-ethyl)-N-[4-(2-methyl-pyridin-4-ylamino)-benzyl]-3-(4-trifluoromethyl-phenyl)-acrylamide]
41	CN(c1ccncc1)c1ccc(CN(C(=O)/C=C/c2ccc(C(F)(F)F)cc2)C2CCN(CC(c3ccccc3)c3ccccc3)CC2)cc1 [Example 15, (E)-N-[1-(2,2-Diphenyl-ethyl)-piperidin-4-yl]-N-[4-(methyl-pyridin-4-yl-amino)-benzyl]-3-(4-trifluoromethyl-phenyl)-acrylamide]
< 8	CCN(CC)Cc1cc(CN2CCC(N(Cc3ccc(Nc4ccnc(C)c4)cc3)C(=O)/C=C/c3ccc(C(F)(F)F)cc3)CC2)ccc1O [Example 54, (E)-N-[1-(3-Diethylaminomethyl-4-hydroxy-benzyl)-piperidin-4-yl]-N-[4-(2-methyl-pyridin-4-ylamino)-benzyl]-3-(4-trifluoromethyl-phenyl)-acrylamide]
21	Cc1cc(Nc2cccc(CN(C(=O)/C=C/c3ccc(C(F)(F)F)cc3)C3CCN(C(C)C)CC3)n2)ccn1 [Example 129, (E)-N-(1-Isopropyl-piperidin-4-yl)-N-[6-(2-methyl-pyridin-4-ylamino)-pyridin-2-ylmethyl]-3-(4-trifluoromethyl-phenyl)-acrylamide formate]
154	CN(c1ccncc1)c1ccc(CN(C(=O)/C=C/c2ccc(C(F)(F)F)cc2)C2CCN(CCC(F)(F)F)CC2)cc1 [Example 16, (E)-N-[4-(Methyl-pyridin-4-yl-amino)-benzyl]-3-(4-trifluoromethyl-phenyl)-N-[1-(3,3,3-trifluoro-propyl)-piperidin-4-yl]-acrylamide]
86	CN(c1ccncc1)c1ccc(CN(C(=O)/C=C/c2ccc(C(F)(F)F)cc2)[C@H]2CCN(C3CCCC3)C2)cc1 [Example 114, (E)-N-((S)-1-Cyclopentyl-pyrrolidin-3-yl)-N-[4-(methyl-pyridin-4-yl-amino)-benzyl]-3-(4-trifluoromethyl-phenyl)-acrylamide]
21	CN1CCC(N2CCC(N(Cc3ccc(N(C)c4ccncc4)cc3)C(=O)/C=C/c3ccc(Cl)cc3)CC2)CC1 [Example 180, (E)-3-(4-Chloro-phenyl)-N-(1′-methyl-[1,4′]bipiperidinyl-4-yl)-N-[4-(methyl-pyridin-4-yl-amino)-benzyl]-acrylamide]
